2 molecules from US20080200439A1, “Methods and compositions for modulating BK channel activity and vasodilation” (University of Tennessee Research Foundation, priority 2006, published 2008) can be followed below.

In the test the target is T1, cbv1+β4 channels (Rattus norvegicus, UniProt Q62976).
T1 construct: Full-length cDNA coding for cbv1-subunits was cloned from rat cerebral artery myocytes by PCR; expressed in transfected cells; host or cells: Xenopus laevis oocytes (cRNA co-injection)
The test can be described thus: Patch-clamp of cbv1+β4 channels expressed in Xenopus oocytes. Type of test: cell-based. From the text:
cRNA Preparation and Injection into Xenopus Oocytes. Full-length cDNA coding for cbv1-subunits was cloned from rat cerebral artery myocytes by PCR and ligated to the PCR-XL-TOPO cloning vector (Invitrogen Corp., Carlsbad, Calif., United States of America) (Jaggar et al., 2005). cDNA coding for cbv1-subunits was cleaved from the cloning vector by BamHI (Invitrogen Corp., Carlsbad, Calif., United States of America) and XhoI (Promega, Madison, Wis., United States of America) and directly inserted into the pOX vector for expression in Xenopus oocytes. pOX-cbv1 was linearized with NotI (Promega, Madison, Wis., United States of America) and transcribed in vitro using T3 polymerase. […]
Electrophysiology. […] Single-channel and macroscopic currents were recorded from inside-out (I/O) or outside-out (O/O) patches. […] Nominal free Ca^2+ was calculated with MaxChelator Sliders (C. Patton, Stanford University, California, United States of America) and validated experimentally using Ca^2+-selective electrodes (Corning Incorporated Science Products Division, Corning, N.Y., United States of America). […]
Currents were recorded using an EPC8 amplifier (HEKA Electronics, Lambrecht/Pfalz, Germany) at 1 kHz using a low-pass, eight-pole Bessel filter 902LPF (Frequency Devices, Haverhill, Mass., United States of America). […]
(In general: Patch clamp records ionic current or voltage across a cell membrane.)

T1 sequence (Q62976 1-1148 isoform Q62976-2): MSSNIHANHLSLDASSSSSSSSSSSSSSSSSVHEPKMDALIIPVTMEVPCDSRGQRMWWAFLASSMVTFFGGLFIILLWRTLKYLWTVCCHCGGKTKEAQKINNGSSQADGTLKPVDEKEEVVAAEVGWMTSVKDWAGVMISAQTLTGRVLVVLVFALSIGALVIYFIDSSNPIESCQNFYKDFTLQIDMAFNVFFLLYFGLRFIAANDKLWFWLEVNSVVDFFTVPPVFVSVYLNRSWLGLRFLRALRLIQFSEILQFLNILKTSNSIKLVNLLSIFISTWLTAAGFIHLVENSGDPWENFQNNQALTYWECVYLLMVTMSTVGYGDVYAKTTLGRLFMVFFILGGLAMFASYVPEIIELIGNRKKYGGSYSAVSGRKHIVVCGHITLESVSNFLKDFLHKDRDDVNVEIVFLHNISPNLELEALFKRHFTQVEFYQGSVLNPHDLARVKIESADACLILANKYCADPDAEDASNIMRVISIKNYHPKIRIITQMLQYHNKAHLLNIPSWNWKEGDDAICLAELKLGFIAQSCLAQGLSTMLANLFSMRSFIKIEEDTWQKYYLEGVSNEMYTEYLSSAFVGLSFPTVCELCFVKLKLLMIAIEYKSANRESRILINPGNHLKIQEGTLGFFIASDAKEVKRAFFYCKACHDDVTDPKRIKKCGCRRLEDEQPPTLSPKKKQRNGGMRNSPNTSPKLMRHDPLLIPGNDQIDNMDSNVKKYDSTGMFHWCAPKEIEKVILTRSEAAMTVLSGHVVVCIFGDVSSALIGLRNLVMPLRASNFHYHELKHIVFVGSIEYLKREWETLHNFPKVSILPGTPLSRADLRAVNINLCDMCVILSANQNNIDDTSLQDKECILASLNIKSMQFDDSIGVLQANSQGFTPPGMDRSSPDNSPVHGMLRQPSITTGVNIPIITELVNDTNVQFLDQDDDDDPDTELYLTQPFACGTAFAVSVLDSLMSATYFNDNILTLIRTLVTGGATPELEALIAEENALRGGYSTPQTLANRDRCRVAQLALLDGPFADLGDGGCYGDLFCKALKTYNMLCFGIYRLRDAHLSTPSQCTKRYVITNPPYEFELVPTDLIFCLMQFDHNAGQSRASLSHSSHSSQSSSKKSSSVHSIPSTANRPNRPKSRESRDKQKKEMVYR
T1 sequence (Q86W47 whole entry partner): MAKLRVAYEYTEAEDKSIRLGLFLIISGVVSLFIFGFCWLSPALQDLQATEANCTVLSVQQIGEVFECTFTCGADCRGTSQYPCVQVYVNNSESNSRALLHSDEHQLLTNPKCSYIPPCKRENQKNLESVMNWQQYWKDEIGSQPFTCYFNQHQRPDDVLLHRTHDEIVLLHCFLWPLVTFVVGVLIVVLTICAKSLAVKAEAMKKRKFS

For `C[C@H](CCC(=O)O)[C@H]1CC[C@H]2[C@@H]3CC[C@@H]4C[C@H](O)CC[C@]4(C)[C@H]3CC[C@]12C` [LC, 5β-cholanic acid 3α-ol], the remaining activity at 150 µM (150 μM, I/O patches, conditions identical to cbv1 and cbv1+β1, read-out: NPo (% of control)) came to 109 ± 11%. In the case of “iberiotoxin (QFTDVDCSVSKECWSVCKDLFGVDRGKCMGKKCRCYQ; UniProt P24663 1-37, looked up) [Ibtx, reference compound]”, the “Block of channel NPo” value (55 nM, protracted exposure) is “resistance to block”.
